# Data taken from US12492173B2, “Herbicidal substituted N-tetrazolyl aryl carboxamides” (Bayer Aktiengesellschaft, priority 2019, dated 2025).
# Legend:
# Format in all cases: in vivo
# Echinochloa crus-galli = test: Pre-emergence herbicidal action, ECHCG; details: dosage 320 g/ha, scored visually after 3 weeks vs untreated controls (100% = plants have died)
# Outline: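 Weed seeds sown in sandy loam and covered; WP or EC formulations applied to soil surface as aqueous suspension or emulsion at 600 to 800 l/ha with 0.2% wetting agent. Greenhouse-grown, with damage scored visually after 3 weeks versus untreated controls (0% = like control, 100% = plants dead).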
# Abutilon theophrasti = test: Post-emergence herbicidal action, ABUTH; parameters: key: % herbicidal action vs untreated; 100 = plants died, 0 = like control; details: Dosage 80 g/ha
# Outline: (§1)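 Foliar application at the one-leaf stage of greenhouse-grown plants in sandy loam; compound applied as WP or EC in 600–800 l/ha water containing 0.2% wetting agent. Scores are visual percentages (0% like control, 100% plants died) taken after roughly 3 weeks.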
# Alopecurus myosuroides = test: Post-emergence herbicidal action, ALOMY; parameters: key: % herbicidal action vs untreated; 100 = plants died, 0 = like control; details: Dosage 80 g/ha
# Outline: as §1
# Setaria viridis = test: Post-emergence herbicidal action, SETVI; parameters: key: % herbicidal action vs untreated; 100 = plants died, 0 = like control; details: Dosage 80 g/ha
# Outline: as §1
# Stellaria media = test: Post-emergence herbicidal action, STEME; parameters: key: % herbicidal action vs untreated; 100 = plants died, 0 = like control; details: Dosage 80 g/ha
# Outline: as §1
# Viola tricolor = test: Post-emergence herbicidal action, VIOTR; parameters: key: % herbicidal action vs untreated; 100 = plants died, 0 = like control; details: Dosage 80 g/ha
# Outline: as §1
smiles,measurement,setting,value
CCCn1nnnc1NC(=O)c1ccc(C(F)F)c(CSC)c1Cl [Example 3-320],herbicidal activity ECHCG,Echinochloa crus-galli,100%
same,herbicidal action ABUTH,Abutilon theophrasti,100
same,herbicidal action ALOMY,Alopecurus myosuroides,80
same,herbicidal action SETVI,Setaria viridis,100
same,herbicidal action STEME,Stellaria media,100
same,herbicidal action VIOTR,Viola tricolor,100
